Data: patent US9532970B2, “Compositions for anti-inflammatory, antioxidant effects and improved respiratory function by specific histone deacetylase inhibition” (priority 2014, dated 2017)
Read-outs that look alike come from different tables or passages of the source.

Test system: Horse PBMC

With `C[S@@+]([O-])CCCCN=C=S` [LSF, (R)-1-Isothiocyanato-4-(methylsulfinyl)butane] the NES (ENCODE TF target set GM12878RAD21 (r27)) was −3.95, the NES (ENCODE TF target set GM12878_RAD21 (r28)) was −3.79 and the NES (ENCODE TF target set GM12878_YY1) was 3.41. For the same compound, the NES (ENCODE TF target set GM12878_ZBTB33 (r17)) was 3.05, the NES (ENCODE TF target set GM12878_ZBTB33 (r21)) was 2.89 and the NES (ENCODE TF target set H1HESC_POL2 (r12)) was 3.34. The NES (ENCODE TF target set H1HESC_POL2 (r13)) was 3.33, the NES (ENCODE TF target set H1NEURONS_NRSF) was 2.84 and the NES (ENCODE TF target set HEPG2_GRP20_FORSKLN) was 3.01. The NES (ENCODE TF target set HEPG2_ZBTB33 (r11)) was 3.35, the NES (ENCODE TF target set HEPG2_ZBTB33 (r14)) was 3.23 and the NES (ENCODE TF target set K562_KAP1) was 3.04. For the same compound, the NES (ENCODE TF target set K562_STAT1_IFNA6H) was −4.54, the NES (ENCODE TF target set K562_STAT2_IFNA6H) was −4.45 and the NES (ENCODE TF target set K562_TR4UCD) was 3.13. It also gave an NES (ENCODE TF target set K562_ZBTB33) of 2.78, an NES (ENCODE TF target set MCF10AES_STAT3) of −3.75 and an NES (ENCODE TF target set SHSY5Y_GATA3) of 3.13. For the same compound, the NES (ENCODE TF target set SKNMC_POL2) was 2.91, the NES (ENCODE TF target set U2OS_SETDB1) was 2.83 and the “expression of CD markers, immunoglobulin containing genes and interleukins” value (LSF vs control) was “strongly down-regulated”. The “pathways related to interferon signalling, STAT1/2 targets and autoimmune/auto-inflammatory diseases” value (LSF vs control) was “strongly downregulated”, the NES (MSigDB gene set ATGTTAA, MIR-302C) was 4.19 and the NES (MSigDB gene set CHEN HOXA5 TARGETS 9HR UP) was 4.3. It also gave an NES (MSigDB gene set CTTGTAT, MIR-381) of 4.1, an NES (MSigDB gene set FULCHER INFLAMMATORY RESPONSE LECTIN VS LPS DN) of −5.59 and an NES (MSigDB gene set GABRIELY MIR21 TARGETS) of 3.8. For the same compound, the NES (MSigDB gene set GCM DFFA) was 4.6, the NES (MSigDB gene set GCM MLL) was 4.08 and the NES (MSigDB gene set GCM MYST2) was 4.99. For the same compound, the NES (MSigDB gene set GCM RAB10) was 3.8, the NES (MSigDB gene set GCM SUFU) was 4.3 and the NES (MSigDB gene set GCM UBE2N) was 4.65. It also gave an NES (MSigDB gene set GCM ZNF198) of 4.95, an NES (MSigDB gene set GSE10239 NAIVE VS MEMORY CD8 TCELL UP) of 4.2 and an NES (MSigDB gene set GSE10325 CD4 TCELL VS MYELOID DN) of −6.35. For the same compound, the NES (MSigDB gene set GSE10325 LUPUS BCELL VS LUPUS MYELOID DN) was −6.47, the NES (MSigDB gene set GSE10325 LUPUS CD4 TCELL VS LUPUS MYELOID DN) was −7.15 and the NES (MSigDB gene set GSE11057 CD4 EFF MEM VS PBMC DN) was −5.63. The NES (MSigDB gene set GSE13485 CTRL VS DAY3 YF17D VACCINE PBMC DN) was −5.66, the NES (MSigDB gene set GSE13485 CTRL VS DAY7 YF17D VACCINE PBMC DN) was −6.96 and the NES (MSigDB gene set GSE13485 DAY3 VS DAY7 YF17D VACCINE PBMC DN) was −5.63. For the same compound, the NES (MSigDB gene set GSE13485 DAY7 VS DAY21 YF17D VACCINE PBMC UP) was −5.61, the NES (MSigDB gene set GSE22866 NAIVE CD4 TCELL VS MONOCYTE DN) was −5.6 and the NES (MSigDB gene set GSE24634 IL4 VS CTRL TREATED NAIVE CD4 TCELL DAY5 UP) was −5.8. For the same compound, the NES (MSigDB gene set GSE24634 TREG VS TCONV POST DAY10 IL4 CONVERSION DN) was −5.97, the NES (MSigDB gene set GSE29617 CTRL VS DAY3 TIV FLU VACCINE PBMC 2008 UP) was 4.12 and the NES (MSigDB gene set GSE29618 BCELL VS MDC DAY7 FLU VACCINE DN) was −5.93. It also gave an NES (MSigDB gene set HAMAI APOPTOSIS VIA TRAIL UP) of 5.42, an NES (MSigDB gene set MCLACHLAN DENTAL CARIES UP) of −5.67 and an NES (MSigDB gene set MEISSNER BRAIN HCP WITH H3K4ME3 AND H3K27ME3) of −5.6. It also gave an NES (MSigDB gene set MILI PSEUDOPODIA HAPTOTAXIS UP) of 4.81, an NES (MSigDB gene set MODULE 45) of −5.9 and an NES (MSigDB gene set MODULE 46) of −6.22. The NES (MSigDB gene set MODULE 75) was −5.9, the NES (MSigDB gene set MODULE 84) was −7.87 and the NES (MSigDB gene set MRNA METABOLIC PROCESS) was 4.19. For the same compound, the NES (MSigDB gene set REACTOME GENERIC TRANSCRIPTION PATHWAY) was 4.19, the NES (MSigDB gene set RNA PROCESSING) was 4.02 and the NES (MSigDB gene set SHEN SMARCA2 TARGETS UP) was 5.39. The NES (MSigDB gene set V$NFMUE1 Q6) was 3.98, the NES (MSigDB gene set WALLACE PROSTATE CANCER RACE UP) was −5.66 and the NES (Reactome gene set ACTIVATION OF KAINATE RECEPTORS UPON GLUTAMATE BINDING) was −2.56. For the same compound, the NES (Reactome gene set ANTIGEN PROCESSING UBIQUITINATION PROTEASOME DEGRADATION) was 2.7, the NES (Reactome gene set ASSOCIATION OF TRIC CCT WITH TARGET PROTEINS DURING BIOSYNTHESIS) was 2.62 and the NES (Reactome gene set CLASS A1 RHODOPSIN LIKE RECEPTORS) was −2.68. For the same compound, the NES (Reactome gene set CLEAVAGE OF GROWING TRANSCRIPT IN THE TERMINATION REGION) was 3.33, the NES (Reactome gene set CYTOKINE SIGNALLING IN IMMUNE SYSTEM) was −2.84 and the NES (Reactome gene set DOWNSTREAM SIGNALING EVENTS OF B CELL RECEPTOR BCR) was 3.12. For the same compound, the NES (Reactome gene set G ALPHA1213 SIGNALLING EVENTS) was −2.54, the NES (Reactome gene set G ALPHA I SIGNALLING EVENTS) was −2.41 and the NES (Reactome gene set G ALPHA SIGNALLING EVENTS) was −2.82. It also gave an NES (Reactome gene set GABA RECEPTOR ACTIVATION) of −2.39, an NES (Reactome gene set GENERIC TRANSCRIPTION PATHWAY) of 4.23 and an NES (Reactome gene set GPCR DOWNSTREAM SIGNALING) of −3.63. The NES (Reactome gene set GPCR LIGAND BINDING) was −2.67, the NES (Reactome gene set HIV LIFE CYCLE) was 2.41 and the NES (Reactome gene set IMMUNOREGULATORY INTERACTIONS BETWEEN A LYMPHOID AND A NON LYMPHOID CELL) was −3.37. The NES (Reactome gene set INTERFERON ALPHA BETA SIGNALING) was −4, the NES (Reactome gene set INTERFERON GAMMA SIGNALING) was −3.9 and the NES (Reactome gene set INTERFERON SIGNALING) was −3.18. The NES (Reactome gene set LATE PHASE OF HIV LIFE CYCLE) was 2.44, the NES (Reactome gene set MHC CLASS II ANTIGEN PRESENTATION) was −2.47 and the NES (Reactome gene set MRNA 3 END PROCESSING) was 3.5. The NES (Reactome gene set MRNA PROCESSING) was 3.68, the NES (Reactome gene set MRNA SPLICING) was 3.09 and the NES (Reactome gene set OPIOID SIGNALLING) was −2.55. It also gave an NES (Reactome gene set PEPTIDE CHAIN ELONGATION) of −2.43, an NES (Reactome gene set PI3K EVENTS IN ERBB2 SIGNALING) of 2.49 and an NES (Reactome gene set PI3K EVENTS IN ERBB4 SIGNALING) of 2.52. For the same compound, the NES (Reactome gene set PIP3 ACTIVATES AKT SIGNALING) was 2.48, the NES (Reactome gene set PROCESSING OF CAPPED INTRON CONTAINING PRE MRNA) was 3.61 and the NES (Reactome gene set RECRUITMENT OF MITOTIC CENTROSOME PROTEINS AND COMPLEXES) was 2.55. For the same compound, the NES (Reactome gene set REGULATION OF MRNA STABILITY BY PROTEINS THAT BIND AU RICH ELEMENTS) was 2.6, the NES (Reactome gene set REGULATION OF ORNITHINE DECARBOXYLASE ODC) was 2.45 and the NES (Reactome gene set RESPIRATORY ELECTRON TRANSPORT ATP SYNTHESIS BY CHEMIOSMOTIC COUPLING AND HEAT PRODUCTION BY UNCOULPLING PROTEINS) was −2.69. For the same compound, the NES (Reactome gene set RNA POL II TRANSCRIPTION) was 3.32, the NES (Reactome gene set SIGNALING BY GPCR) was −3.35 and the NES (Reactome gene set SIGNALING BY RHO GTPASES) was −2.87. It also gave an NES (Reactome gene set TCA CYCLE AND RESPIRATORY ELECTRON TRANSPORT) of −2.8, an NES (Reactome gene set TRANSCRIPTION) of 3.25 and an NES (Reactome gene set TRANSPORT OF MATURE TRANSCRIPT TO CYTOPLASM) of 3.02.
